Target: ATP-dependent translocase ABCB1 (Homo sapiens, UniProt P08183)
Experiment: TP_TRANSPORTER: inhibition of Daunorubicin efflux in NIH-3T3-G185 cells

Sequence of ATP-dependent translocase ABCB1 (P08183 whole entry): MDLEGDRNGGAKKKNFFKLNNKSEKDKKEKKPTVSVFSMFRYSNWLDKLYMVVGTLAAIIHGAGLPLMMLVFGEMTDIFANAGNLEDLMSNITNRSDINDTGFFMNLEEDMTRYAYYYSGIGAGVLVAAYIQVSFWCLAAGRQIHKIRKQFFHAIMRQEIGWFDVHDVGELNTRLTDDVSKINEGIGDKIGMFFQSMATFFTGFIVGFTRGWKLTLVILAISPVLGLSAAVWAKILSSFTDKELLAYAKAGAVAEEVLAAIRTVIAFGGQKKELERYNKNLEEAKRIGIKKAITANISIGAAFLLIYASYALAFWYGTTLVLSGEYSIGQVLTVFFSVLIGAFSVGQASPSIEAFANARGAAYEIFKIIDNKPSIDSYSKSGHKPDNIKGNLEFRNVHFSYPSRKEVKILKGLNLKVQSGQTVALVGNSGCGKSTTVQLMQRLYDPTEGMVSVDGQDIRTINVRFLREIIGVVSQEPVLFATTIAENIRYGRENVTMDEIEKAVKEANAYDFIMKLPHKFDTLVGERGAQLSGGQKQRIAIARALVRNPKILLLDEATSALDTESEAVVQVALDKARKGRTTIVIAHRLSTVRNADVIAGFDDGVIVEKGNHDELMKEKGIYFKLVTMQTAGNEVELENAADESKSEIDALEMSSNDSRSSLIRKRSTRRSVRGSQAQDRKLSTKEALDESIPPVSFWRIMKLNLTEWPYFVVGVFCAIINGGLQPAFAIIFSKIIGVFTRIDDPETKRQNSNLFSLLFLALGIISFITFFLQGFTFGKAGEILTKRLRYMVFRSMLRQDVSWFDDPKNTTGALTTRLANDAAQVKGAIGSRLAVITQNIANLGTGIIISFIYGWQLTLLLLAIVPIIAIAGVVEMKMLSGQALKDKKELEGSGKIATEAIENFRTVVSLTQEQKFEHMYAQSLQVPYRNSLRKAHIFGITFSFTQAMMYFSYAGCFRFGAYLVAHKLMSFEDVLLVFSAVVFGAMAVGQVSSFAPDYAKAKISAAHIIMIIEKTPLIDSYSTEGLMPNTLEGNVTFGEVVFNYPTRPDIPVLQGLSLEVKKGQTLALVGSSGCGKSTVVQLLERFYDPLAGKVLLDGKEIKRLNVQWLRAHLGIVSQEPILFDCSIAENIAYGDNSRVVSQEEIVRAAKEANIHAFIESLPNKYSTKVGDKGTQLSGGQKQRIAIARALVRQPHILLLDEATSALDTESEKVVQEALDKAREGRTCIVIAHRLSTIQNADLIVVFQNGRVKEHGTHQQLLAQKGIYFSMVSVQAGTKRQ

Row | SMILES | IC50 [µM]
1 | COc1ccc(CCN(C)CCCC(C#N)(c2cc(OC)c(OC)c(OC)c2)C(C)C)cc1OC (stereo unspecified) [GALLOPAMIL] | 3.2
2 | CC(C)[C@@H]1NC(=O)[C@H](C)OC(=O)[C@@H](C(C)C)NC(=O)[C@@H](C(C)C)OC(=O)[C@H](C(C)C)NC(=O)[C@H](C)OC(=O)[C@@H](C(C)C)NC(=O)[C@@H](C(C)C)OC(=O)[C@H](C(C)C)NC(=O)[C@H](C)OC(=O)[C@@H](C(C)C)NC(=O)[C@@H](C(C)C)OC1=O [VALINOMYCIN] | 3.2
3 | CC(=O)S[C@@H]1CC2=CC(=O)CC[C@]2(C)[C@H]2CC[C@@]3(C)[C@@H](CC[C@@]34CCC(=O)O4)[C@H]12 [SPIRONOLACTONE] | 23.6
4 | COC(=O)C1=C(C)NC(C)=C(C(=O)OC)C1c1ccccc1[N+](=O)[O-] [NIFEDIPINE] | 113
5 | COc1ccc(-c2cc(=O)c3c(OC)c(OC)c(OC)c(OC)c3o2)cc1OC [NOBILETIN] | 11.5
6 | COc1ccc(CCNCCCC(C#N)(c2ccc(OC)c(OC)c2)C(C)C)cc1OC (stereo unspecified) [NORVERAPAMIL] | 0.9

— ChEMBL document CHEMBL2073899, “Quantitative distinctions of active site molecular recognition by P-glycoprotein and cytochrome P450 3A4” (Chem Res Toxicol, 2001)
